Measurements: patent US12702656B2, “ALA and salt formulation” (Molecular Product Management LLC, priority 2016, dated 2026)

Tests used:
[1] = Oral dissolve acceptability / ALA burn of ALA lozenges and tablets in users; settings: salt added to, or salt form used in, oral dissolve ALA formulation
Protocol: These tablets are circular, 9 mm in diameter, approximately 5 mm thick, having a weight of approximately 0.35 g and dissolution times of about 3.5 minutes.
Such NaCl-tablet and Non-Salt-tablet formulations being referred to as “NaCl-formulations” and “Non-Salt-formulation” respectively.
One way to specify or measure the difference resulting from the addition of any organic or inorganic salt (such as NaCl) to a formulation, is to measure the degree to which the Salt-formulation has less of an ALA burn than the Non-Salt-formulation when dissolved in the mouth.

[2] = antacid taken with ALA taken orally (ingested); found by some individuals
From the text: Some of the ALA in the saliva is swallowed during oral dissolve administration, therefore the esophagus and stomach encounter some ALA and may be irritated by it, particularly in humans and non-human species with sensitive stomachs.

[3] = cited from earlier work

| SMILES | reduction of ALA burn (burning sensation in the mouth) [1] | other results |
| --- | --- | --- |
| O=C([O-])CCCC[C@@H]1CCSS1.[Na+] [Na—R-ALA] | further reduction of the ALA burning and/or rawness problems | – |
| O=C([O-])[O-].[Ca+2] [calcium carbonate] | – | stomach irritation [2]: reduces this stomach irritation |
| O=C(O)CCCCC1CCSS1 (stereo not drawn) [ALA, Alpha-lipoic acid] | – | pKa [3]: 4.7 |
| [Cl-].[Na+] [NaCl, sodium chloride] | reduces the ALA burn during oral dissolution | – |
